The values below come from ChEMBL document CHEMBL3870303, “Substituted conformationally restricted guanidine derivatives: Probing the α2-adrenoceptors' binding pocket” (Eur J Med Chem, 2016).

The structures appear in SMILES notation. Activity calls are given as the source filed them. The calls are words filed in the database; no cut-off is given here.

The target of one test is Adrenergic receptor alpha-2 (Homo sapiens) (UniProt P08913+P18825+P18089). The test can be described thus: Antagonist activity at alpha-2 adrenergic receptor in human brain prefrontal cortex neural membranes assessed as inhibition of [35S]GTPgammaS binding after 120 mins by liquid scintillation counting. It is filed as functional, tissue-based.
As for `c1ccc2c(c1)CCN=C(NCc1ccc3c(c1)OCO3)N2`, the inhibition entry is “Active”.
The same measure, in the same setting: with `c1ccc(CNC2=NCc3cccnc3N2Cc2ccc3c(c2)OCO3)cc1` the entry was “Active”.

The next test has as its target T1, Adrenergic receptor alpha-2 (Homo sapiens, UniProt P08913+P18825+P18089).
T1 sequence (P08913 whole entry): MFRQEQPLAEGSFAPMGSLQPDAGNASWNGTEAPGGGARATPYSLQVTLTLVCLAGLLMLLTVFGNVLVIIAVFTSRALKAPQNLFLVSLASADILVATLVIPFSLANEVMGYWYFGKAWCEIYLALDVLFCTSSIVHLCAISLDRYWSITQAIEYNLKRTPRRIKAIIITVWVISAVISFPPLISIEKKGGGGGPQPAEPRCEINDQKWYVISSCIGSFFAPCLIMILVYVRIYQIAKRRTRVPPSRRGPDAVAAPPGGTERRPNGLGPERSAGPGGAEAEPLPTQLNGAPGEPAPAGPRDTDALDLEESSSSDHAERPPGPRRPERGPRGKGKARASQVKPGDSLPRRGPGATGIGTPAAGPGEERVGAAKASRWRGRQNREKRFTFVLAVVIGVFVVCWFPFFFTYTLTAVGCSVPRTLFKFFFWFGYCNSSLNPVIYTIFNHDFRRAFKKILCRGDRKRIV
T1 sequence (P18825 whole entry): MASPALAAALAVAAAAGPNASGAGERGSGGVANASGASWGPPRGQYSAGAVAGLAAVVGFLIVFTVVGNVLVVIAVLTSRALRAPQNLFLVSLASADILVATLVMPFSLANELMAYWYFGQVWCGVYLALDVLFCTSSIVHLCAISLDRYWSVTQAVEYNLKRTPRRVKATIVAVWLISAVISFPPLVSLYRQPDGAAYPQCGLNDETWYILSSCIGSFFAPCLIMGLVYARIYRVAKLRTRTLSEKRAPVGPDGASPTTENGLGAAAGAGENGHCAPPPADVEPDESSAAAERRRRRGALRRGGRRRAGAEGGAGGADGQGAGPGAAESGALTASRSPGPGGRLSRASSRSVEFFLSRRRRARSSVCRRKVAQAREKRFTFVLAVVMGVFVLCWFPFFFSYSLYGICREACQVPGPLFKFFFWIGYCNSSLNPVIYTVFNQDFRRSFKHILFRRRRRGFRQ
T1 sequence (P18089 whole entry): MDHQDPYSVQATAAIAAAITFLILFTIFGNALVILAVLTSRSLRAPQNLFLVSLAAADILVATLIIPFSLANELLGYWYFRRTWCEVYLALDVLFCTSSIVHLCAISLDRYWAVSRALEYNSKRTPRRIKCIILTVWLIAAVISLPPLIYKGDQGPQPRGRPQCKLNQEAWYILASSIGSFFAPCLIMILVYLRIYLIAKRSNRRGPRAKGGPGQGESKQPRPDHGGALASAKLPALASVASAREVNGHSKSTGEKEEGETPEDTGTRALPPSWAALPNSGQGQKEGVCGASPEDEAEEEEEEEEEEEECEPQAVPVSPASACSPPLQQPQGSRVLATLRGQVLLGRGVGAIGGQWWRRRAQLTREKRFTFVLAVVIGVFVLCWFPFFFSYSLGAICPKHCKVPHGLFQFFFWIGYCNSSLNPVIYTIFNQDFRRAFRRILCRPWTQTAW
In words: Displacement of [3H]RX821002 from alpha-2 adrenergic receptor in human brain pre-frontal cortex neural membranes after 30 mins by liquid scintillation counting method.
Turning to `OCCNC1=NCCc2ccccc2N1`, the pKi stood at 5.81.
On the same count and under the same terms, with `CN(C)c1ccc2c(c1)CCN=C(NCc1ccco1)N2` the figure was 5.36; with `CCCN1C(NCc2ccccc2)=NCc2cccnc21`, 5.05.
On the same count and under the same terms, the value for `CN(C)c1ccc2c(c1)CCN=C(NCc1ccc3c(c1)OCO3)N2` was 6.14.
`CCCN1C(N)=NCc2ccccc21`: the pKi turned out to be 5.11.
On the same count and under the same terms, with `OCCN1C(NCc2ccccc2)=NCc2cccnc21` the figure was 5.07.
Regarding `c1ccc(CNC2=NCc3ccccc3N2Cc2ccc3c(c2)OCO3)cc1`, the pKi was 6.55.
In turn, `CCCN1C(NCc2ccccc2)=NCc2ccccc21` had a negative-log Ki (pKi) of 5.29.
In turn, `CCCN1C(N)=NCc2cccnc21` came in with a pKi of 4.99.
Compound `c1ccc(CNC2=NCc3ccccc3N2c2ccccc2)cc1` had a negative logarithm of the Ki (pKi) of 4.92.
As for `NC1=NCc2ccccc2N1c1ccccc1`, the pKi was 5.85.
Turning to `c1ccc2c(c1)CCN=C(NCc1ccc3c(c1)OCO3)N2`, the negative-log Ki (pKi) was determined as 6.64.
Turning to `c1ccc(CNC2=NCc3cccnc3N2Cc2ccc3c(c2)OCO3)cc1`, the pKi turned out to be 5.15.
Same read-out and setting: with `COC1(C2=NCCN2)COc2ccccc2O1` (stereo not drawn) the figure was 8.85; with `OCCNC1=NCCc2cc3c(cc2N1)OCO3`, 5.5.
In turn, `CN(C)c1ccc2c(c1)CCN=C(NCCO)N2` came in with a pKi of 4.99.
